Reference: ChEMBL document CHEMBL5376002, “A Hybrid Antimicrobial Peptide Targeting Staphylococcus aureus with a Dual Function of Inhibiting Quorum Sensing Signaling and an Antibacterial Effect” (J Med Chem, 2023)
pKd: −log10 of the molar value. In brackets after ≈: the same amount, converted by molar mass. Activity calls are given as the source filed them. The rule behind the calls is not given here. Numbered stars: 1 amine (or outer) side, 2 acyl side, 3 side chain; on linkers, the order of the positions; unused ones are H or OH. Bridge positions count the residues as written; N and C are the ends. Square brackets hold non-standard residues; d marks the D form. Peptide text beside a SMILES is read from it. I, II: the chains in the order shown. X1 = O=C1CC([*:2])C(=O)N1CCCCCC(=O)[*:1]; Dab = NCC[C@H](N)C(=O)O

Experiments:
Cell membrane [1] = assay: Induction of cell membrane damage in Staphylococcus aureus ATCC 6538p assessed as increase in nucleic acid leakage measured up to 30 mins by UV-spectrophotometer analysis; assay type: subcellular
Streptococcus mutans [2] = assay: Antibacterial activity against Streptococcus mutans UA159 assessed as inhibition of bacterial growth incubated for 18 to 24 hrs; assay type: functional; conditions: time 18-24 hrs
Escherichia coli = assay: Antibacterial activity against Escherichia coli assessed as reduction in bacterial growth at 6.25 uM measured at 20 mins by time kill assay; assay type: functional, organism-based
Streptococcus pneumoniae = assay: Bactericidal activity against Streptococcus pneumoniae ATCC 49619 assessed as inhibition of bacterial growth incubated for 18 to 24 hrs; assay type: functional; conditions: time 18-24 hrs
[3] = Binding affinity to AgrC-I extra-loop-III (unknown origin) assessed as change in enthalpy incubated for 10 mins by isothermal titration calorimetry analysis
Staphylococcus aureus [4] = assay: Antibacterial activity against Staphylococcus aureus ATCC 43300 assessed as inhibition of bacterial growth incubated for 18 to 24 hrs; assay type: functional; conditions: time 18-24 hrs
[5] = Binding affinity to AgrC-I extra-loop-I (unknown origin) assessed as dissociation constant incubated for 10 mins by isothermal titration calorimetry analysis
Staphylococcus aureus [6] = assay: Antivirulence activity against Staphylococcus aureus assessed as downregulation of RNAIII expression level at 1 to 100 uM incubated for 24 hrs by qRT-PCR analysis; assay type: functional, organism-based; conditions: dose 1-100 µM
[7] = Binding affinity to AgrC-I extra-loop-I (unknown origin) assessed as change in enthalpy incubated for 10 mins by isothermal titration calorimetry analysis
Cell membrane [8] = assay: Induction of cell membrane damage in Staphylococcus aureus ATCC 6538p assessed as increase in fluorescent intensity incubated for 30 mins by PI staining based flow cytometry assay
Homo sapiens = species: Homo sapiens; assay: Binding affinity to AgrC-I extra-loop-I (unknown origin) assessed as change in entropy incubated for 10 mins by isothermal titration calorimetry analysis
Streptococcus mutans [9] = assay: Antibacterial activity against Streptococcus mutans ATCC 25175 assessed as inhibition of bacterial growth incubated for 18 to 24 hrs; assay type: functional; conditions: time 18-24 hrs

In the case of `CC[C@H](C)[C@H](NC(=O)CNC(=O)CNC(=O)[C@@H](N)CSC1CC(=O)N(CCCCCC(=O)NCC(=O)N[C@H](C(=O)N[C@@H](CCCCN)C(=O)N[C@@H](CC(N)=O)C(=O)N[C@@H](CC(C)C)C(=O)N[C@@H](Cc2c[nH]c3ccccc23)C(=O)N[C@@H](CCCCN)C(=O)N[C@@H](CCCCN)C(=O)N[C@@H](CCSC)C(=O)N[C@H](C(=O)N[C@@H](CCCCN)C(=O)N[C@@H](CC(C)C)C(=O)N[C@@H](Cc2c[nH]c3ccccc23)C(=O)N[C@@H](Cc2ccc(O)cc2)C(=O)O)[C@@H](C)CC)[C@@H](C)CC)C1=O)C(=O)N[C@@H](CC(N)=O)C(=O)N[C@H]1CCNC(=O)[C@H](CC(C)C)NC(=O)[C@H](CC(C)C)NC(=O)[C@H](Cc2ccccc2)NC(=O)[C@H](C)NC1=O` (some centres not stated) (I: GIKNLWKKMIKLWY-OH / II: H-CGGIN[Dab]AFLL; linker I:N-II:1 via X1; lactam II:6-II:C), the Activity (Cell membrane [1]) was “Active”, the MIC (Streptococcus mutans [2]) was 6.25 µM (≈ 18.8 µg/mL) and the Activity (Escherichia coli) was “inactive”. The MBC (Streptococcus pneumoniae) was 6.25 µM (≈ 18.8 µg/mL), the deltaH [3] was “inactive” and the MIC (Staphylococcus aureus [4]) was 6.25 µM (≈ 18.8 µg/mL). The pKd [5] was 12.00, the Activity (Staphylococcus aureus [6]) was “Active” and the deltaH [7] was -4.7 kcal/mol. For the same molecule, the Activity (Cell membrane [8]) was “Active”, the -TdeltaS (Homo sapiens) was -11.7 kcal/mol and the MIC (Streptococcus mutans [9]) was 3.13 µM (≈ 9.4 µg/mL).
